Read-outs that look alike come from different tables or passages of the source.
Legend:
[1] = 2 steps

Question: For “(9S,15S,18S,Z)-2-ethyl-18-isopropyl-3-(2-((S)-1-methoxyethyl)pyridin-3-yl)-5,5,19-trimethyl-2,4,5,6,9,10,11,12,15,16,18,19,23,24-tetradecahydro-8H,14H-9,13-epimino-1,30-etheno-15,27-methano-25,29-(metheno)pyrrolo[3,4-z][1]oxa[7,10,13,18]tetraazacyclotriacontine-8,14,17,20-tetraone”, which ring closure, isolated yield (rcm bond, 14-membered ring, Grubbs II, DCM, 7.1 mM, 40.0 °C) is on record?
Answer: The ring closure, isolated yield was 16%.

Question: For “(9S,15S,18R)-3-(5-(4-cyclopropylpiperazin-1-yl)-2-((S)-1-methoxyethyl)pyridin-3-yl)-2-ethyl-18-isopropyl-5,5-dimethyl-21-phenyl-2,4,5,6,9,10,11,12,15,16,19,22-dodecahydro-8H,14H-9,13-epimino-1,29-etheno-15,26-methano-24,28-(metheno)pyrrolo[3,4-u][1,17]dioxa[4,8,11]triazacyclononacosine-8,14,17(18H)-trione”, which ring closure, isolated yield (other bond, 13-membered ring, 2 steps) is on record?
Answer: The ring closure, isolated yield was 62%.

Question: With “(9S,15S,18S,20aS,21aR)-2-ethyl-18-isopropyl-3-(2-((S)-1-methoxyethyl)pyridin-3-yl)-5,5,19-trimethyl-2,4,5,6,9,10,11,12,15,16,18,19,21,21a,22,23-hexadecahydro-8H-9,13-epimino-1,29-etheno-15,26-methano-24,28-(metheno)cyclopropa[o]pyrrolo[3,4-z][1]oxa[7,10,13,18]tetraazacyclotriacontine-8,14,17,20(20aH)-tetraone” as the compound, how does the ring closure, yield after HPLC ([1]; amide bond, 14-membered ring) read?
Answer: The ring closure, yield after HPLC was 1.5%.

Question: Which ring closure, isolated yield (rcm bond, 14-membered ring, Grubbs II (0.5 eq), DCM, 12.0 mM, 40.0 °C) does the source give for “(9S,15S,18S,20aS,21aS,E)-2-ethyl-18-isopropyl-3-(2-((S)-1-methoxyethyl)pyridin-3-yl)-5,5,19-trimethyl-2,4,5,6,9,10,11,12,15,16,18,19,21,21a-tetradecahydro-8H-9,13-epimino-1,29-etheno-15,26-methano-24,28-(metheno)cyclopropa[o]pyrrolo[3,4-z][1]oxa[7,10,13]triazacyclotriacontine-8,14,17,20(20aH)-tetraone” here?
Answer: The ring closure, isolated yield was 11%.

Question: With `COC(=O)[C@@H]1Cc2cc(cc(Cl)n2)C=CCOC[C@@H](C(C)C)C(=O)N1` as the compound, how does the ring closure, isolated yield (from C=CCOC[C@H](C(=O)N[C@@H](Cc1cc(C=C)cc(Br)n1)C(=O)OC)C(C)C, rcm bond, 13-membered ring, Grubbs II (0.1 eq), DCM, 2.28 mM, 40.0 °C) read?
Answer: The ring closure, isolated yield was 81%.

Question: With “tert-butyl 4-((9S,15S,18S,21 S)-3-(5-(4-cyclopropylpiperazin-1-yl)-2-((S)-1-methoxyethyl)pyridin-3-yl)-2-ethyl-18-isopropyl-5,5-dimethyl-8,14,17-trioxo-2,4,5,6,9,10,11,12,15,16,17,18,21,22-tetradecahydro-8H,14H,20H-9,13-epimino-1,29-etheno-15,26-methano-24,28-(metheno)pyrrolo[3,4-q][1,13,26]trioxa[4,7]diazacyclononacosin-21-yl)piperazine-1-carboxylate” as the compound, how does the ring closure, isolated yield (ether bond, 13-membered ring) read?
Answer: Its ring closure, isolated yield is 40%.

Question: Which ring closure, isolated yield (amide bond, 15-membered ring, 2 steps) does the source give for “(9S,15S,18S)-25-benzyl-2-ethyl-18-isopropyl-3-(2-((S)-1-methoxyethyl)pyridin-3-yl)-5,5,19-trimethyl-2,4,5,6,9,10,11,12,15,16,18,19,22,23,24,25-hexadecahydro-8H-9,13-epimino-1,31-etheno-15,28-methano-26,30-(metheno)pyrrolo[3,4-a1][1]oxa[7,10,13,19]tetraazacyclohentriacontine-8,14,17,20(21H)-tetraone” here?
Answer: Its ring closure, isolated yield is 95%.

Question: Which ring closure, isolated yield (amide bond, 13-membered ring, 2 steps) does the source give for “(9S,15S,18R,22S)-2-ethyl-18-isopropyl-3-(2-((S)-1-methoxyethyl)-5-(4-methylpiperazin-1-y)pyridin-3-yl)-5,5-dimethyl-22-phenyl-2,4,5,6,9,10,11,12,15,16,18,19,22,23-tetradecahydro-8H,21H-9,13-epimino-1,29-etheno-15,26-methano-24,28-(metheno)pyrrolo[3,4-l][1,17]dioxa[4,23,26]triazacyclononacosine-8,14,17-trione” here?
Answer: Its ring closure, isolated yield is 6.4%.

Question: With `CCOC(=O)[C@@H]1Cc2nc(Br)sc2CCCC(=O)N(C)[C@@H](C(C)C)C(=O)N1` as the compound, how does the ring closure, isolated yield (from CCOC(=O)[C@@H](N)Cc1nc(Br)sc1CCCC(=O)N(C)[C@H](C(=O)O)C(C)C, amide bond, 12-membered ring, HATU/DIEA, DMF, 209.0 mM, 0.0 °C, 3 steps) read?
Answer: Its ring closure, isolated yield is 28%.

Question: For `COC(=O)[C@@H]1CCCN(C(=O)[C@@H]2Cc3cc(Br)cc(c3)CN(c3ccccc3)CCO[C@@H](C(C)C)C(=O)N2)N1`, which ring closure, isolated yield (from COC(=O)[C@@H]1CCCN(C(=O)[C@@H](N)Cc2cc(Br)cc(CN(CCO[C@H](C(=O)O)C(C)C)c3ccccc3)c2)N1, amide bond, 13-membered ring, EDCI/HOBt/DIEA, DCM, 107.0 mM, 25.0 °C, 2 steps) is on record?
Answer: Its ring closure, isolated yield is 34%.

Question: Which ring closure, isolated yield (amide bond, 13-membered ring, EDCI/HOBt/DIEA, DCM, 2 steps) does the source give for “(9S,15S,18R,21R)-3-(5-(4-cyclopropylpiperazin-1-yl)-2-((S)-1-methoxyethyl)pyridin-3-yl)-21-(2,6-dichloropyridin-4-yl)-2-ethyl-18-isopropyl-5,5-dimethyl-2,4,5,6,9,10,11,12,15,16,18,19,22,23-tetradecahydro-8H,21H-9,13-epimino-1,29-etheno-15,26-methano-24,28-(metheno)pyrrolo[3,4-l][1,17]dioxa[4,23,26]triazacyclononacosine-8,14,17-trione” here?
Answer: The ring closure, isolated yield was 66%.

Question: With “tert-butyl ((9S,15S,18S,22R)-2-ethyl-18-isopropyl-3-(2-((S)-1-methoxyethyl)pyridin-3-yl)-5,5,19-trimethyl-8,14,17,20-tetraoxo-2,4,5,6,9,10,11,12,15,16,17,18,19,20,21,22,23,24-octadecahydro-8H,14H-9,13-epimino-1,31-etheno-15,28-methano-26,30-(metheno)pyrrolo[3,4-a1][1,19]dioxa[7,10,13]triazacyclohentriacontin-22-yl)carbamate” as the compound, how does the ring closure, isolated yield (amide bond, 15-membered ring, 3 steps) read?
Answer: Its ring closure, isolated yield is 27%.

Question: Which ring closure, yield after HPLC ([1]; ester bond, 18-membered ring) does the source give for “(9S,15S,18S)-3-(5-(4-cyclopropylpiperazin-1-yl)-2-((S)-1-methoxyethyl)pyridin-3-yl)-2-ethyl-18-isopropyl-5,5-dimethyl-22-phenyl-2,4,5,6,9,10,11,12,15,16,20,21,22,23-tetradecahydro-8H,14H-9,13-epimino-1,29-etheno-15,26-methano-24,28-(metheno)pyrrolo[3,4-q][1,13]dioxa[4,7,27]triazacyclononacosine-8,14,17(18H)-trione” here?
Answer: Its ring closure, yield after HPLC is 23%.

Question: For `COC(=O)[C@@H]1CCCN(C(=O)[C@H]2NC(=O)[C@H](C(C)C)N3CCC[C@@H]3COc3ccccc3CN(C)[C@@H]2c2nc(Br)cs2)N1`, which ring closure, isolated yield (from COC(=O)[C@@H]1CCCN(C(=O)[C@@H](N)[C@@H](c2nc(Br)cs2)N(C)Cc2ccccc2OC[C@H]2CCCN2[C@H](C(=O)O)C(C)C)N1, amide bond, 13-membered ring, HATU/DIEA, DMF, 12.4 mM, 20.0 °C, 2 steps) is on record?
Answer: The ring closure, isolated yield was 55%.
